{"source": "patent US6916480B2", "about": "“Wiper containing a controlled-release anti-microbial agent” (Kimberly-Clark Worldwide, Inc., priority 1999, dated 2005)", "origin": "cited, not measured here", "key": {"E. Coli": {"tested_on": "E. Coli", "settings": "according to most literature"}, "Salmonella spp.": {"tested_on": "Salmonella spp.", "settings": "according to most literature"}}}
{"smiles": "[Ag]", "note": "[silver]", "values": [{"measurement": "silver content that can effectively kill microbes", "setting": "E. Coli", "result": "20 parts per billion (ppb)"}, {"measurement": "silver content that can effectively kill microbes", "setting": "Salmonella spp.", "result": "20 parts per billion (ppb)"}]}
